Reference: ChEMBL document CHEMBL6182948 (J Med Chem, 2025)

Key:
[1] = target: T1, CYP1B1 (Homo sapiens, UniProt Q16678); assay: Inhibition of human recombinant CYP1B1 using 7-ethoxyresorufin as substrate at 100 uM incubated under dark condition for 30 mins in presence of NADPH by EROD fluorescence assay relative to control; format: ADME; conditions: recombinant CYP1B1, probe 7-ethoxyresorufin
T1 sequence (Q16678 whole entry): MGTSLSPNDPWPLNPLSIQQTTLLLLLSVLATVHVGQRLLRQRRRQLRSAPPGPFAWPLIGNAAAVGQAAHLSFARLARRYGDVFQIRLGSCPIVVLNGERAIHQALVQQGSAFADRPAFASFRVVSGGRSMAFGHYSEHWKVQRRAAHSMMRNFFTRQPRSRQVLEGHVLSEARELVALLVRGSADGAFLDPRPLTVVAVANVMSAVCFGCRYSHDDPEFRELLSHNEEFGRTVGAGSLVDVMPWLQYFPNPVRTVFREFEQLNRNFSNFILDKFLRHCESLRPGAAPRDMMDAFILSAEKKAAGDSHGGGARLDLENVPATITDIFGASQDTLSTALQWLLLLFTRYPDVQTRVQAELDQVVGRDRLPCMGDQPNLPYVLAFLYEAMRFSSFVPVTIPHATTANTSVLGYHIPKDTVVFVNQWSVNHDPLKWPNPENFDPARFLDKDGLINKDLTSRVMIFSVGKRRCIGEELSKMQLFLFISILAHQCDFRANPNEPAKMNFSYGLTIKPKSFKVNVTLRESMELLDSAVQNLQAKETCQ

[2] = target: T2, Cytochrome P450 1A2 (Homo sapiens, UniProt P05177); assay: Inhibition of human recombinant CYP1A2 using 7-ethoxyresorufin as substrate incubated under dark condition for 45 mins in presence of NADPH by EROD fluorescence assay; format: ADME
T2 sequence (P05177 whole entry): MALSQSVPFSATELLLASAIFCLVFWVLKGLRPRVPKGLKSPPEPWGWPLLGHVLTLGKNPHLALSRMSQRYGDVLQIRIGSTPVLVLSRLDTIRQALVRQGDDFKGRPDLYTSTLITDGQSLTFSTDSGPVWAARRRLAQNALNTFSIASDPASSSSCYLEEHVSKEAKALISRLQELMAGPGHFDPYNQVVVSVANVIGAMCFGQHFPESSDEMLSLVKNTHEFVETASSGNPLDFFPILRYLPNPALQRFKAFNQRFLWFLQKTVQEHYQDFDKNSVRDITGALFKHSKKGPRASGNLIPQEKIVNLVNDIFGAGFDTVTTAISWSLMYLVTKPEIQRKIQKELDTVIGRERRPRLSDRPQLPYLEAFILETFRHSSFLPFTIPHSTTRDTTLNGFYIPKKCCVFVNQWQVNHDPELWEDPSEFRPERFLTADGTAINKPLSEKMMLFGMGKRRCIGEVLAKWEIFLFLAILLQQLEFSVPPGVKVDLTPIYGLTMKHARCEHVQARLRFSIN

[3] = organism: Homo sapiens; assay: Selectivity index, ratio of IC50 for human recombinant CYP1A1 to IC50 for human recombinant CYP1B1 using 7-ethoxyresorufin as substrate
[4] = organism: Homo sapiens; assay: Selectivity index, ratio of IC50 for human recombinant CYP1A2 to IC50 for human recombinant CYP1B1 using 7-ethoxyresorufin as substrate
[5] = target: T3, Cytochrome P450 1A1 (Homo sapiens, UniProt P04798); assay: Inhibition of human recombinant CYP1A1 using 7-ethoxyresorufin as substrate incubated under dark condition for 15 mins in presence of NADPH by EROD fluorescence assay; format: ADME
T3 sequence (P04798 whole entry): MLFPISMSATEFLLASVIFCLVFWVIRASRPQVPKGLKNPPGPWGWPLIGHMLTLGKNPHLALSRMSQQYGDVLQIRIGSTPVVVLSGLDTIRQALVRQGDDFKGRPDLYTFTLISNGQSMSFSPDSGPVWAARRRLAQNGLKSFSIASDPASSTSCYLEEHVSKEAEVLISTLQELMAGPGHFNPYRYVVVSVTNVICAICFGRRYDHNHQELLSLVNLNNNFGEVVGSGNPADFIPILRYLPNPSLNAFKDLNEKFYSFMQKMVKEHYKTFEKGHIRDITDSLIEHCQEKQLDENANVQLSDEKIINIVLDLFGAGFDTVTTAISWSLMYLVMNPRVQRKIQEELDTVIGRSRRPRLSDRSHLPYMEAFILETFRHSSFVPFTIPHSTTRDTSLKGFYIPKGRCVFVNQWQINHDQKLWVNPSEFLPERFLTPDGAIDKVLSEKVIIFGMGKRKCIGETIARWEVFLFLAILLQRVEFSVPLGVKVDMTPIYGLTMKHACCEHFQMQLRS

[6] = target: T4, Cytochrome P450 1B1 (Homo sapiens, UniProt Q16678); assay: Inhibition of human recombinant CYP1B1 using 7-ethoxyresorufin as substrate incubated under dark condition for 30 mins in presence of NADPH by EROD fluorescence assay; format: ADME
T4 sequence (Q16678 whole entry): T1 sequence (Q16678 whole entry)

| inhibition at 0.5 h, 100 µM [1] [%] | IC50 [2] [nM] | Ratio IC50 [3] | Ratio IC50 [4] | IC50 [5] [nM] | IC50 [6] [nM] | SMILES |
| --- | --- | --- | --- | --- | --- | --- |
| 20.5 | – | – | – | – | – | O=C(Nc1ccc(N2CCOCC2)cc1)c1nc(-c2ccccc2)cs1 |
| 95 | 899 | 42 | 80.2 | 470 | 11.2 | COc1ccc(NC(=O)c2nc(-c3ccccc3)cs2)cc1 |
| 89.3 | 438 | 31.1 | – | 785 | 25.2 | COc1ccc(NC(=O)c2nc(-c3ccccc3)cs2)c(OC)c1 |
| 86.7 | 221 | 11.7 | 9.2 | 280 | 24 | O=C(Nc1ccc(F)cc1)c1nc(-c2ccccc2)cs1 |
| 21.2 | – | – | – | – | – | O=C(Nc1ccc(-c2ccccc2)cc1)c1nc(-c2ccccc2)cs1 |
| 96.2 | 80.9 | 20.5 | 8 | 208 | 10.1 | O=C(Nc1cc(Cl)ccc1Cl)c1nc(-c2ccccc2)cs1 |
| 99.3 | 563 | 113 | 73.4 | 870 | 7.68 | N#Cc1ccc(NC(=O)c2nc(-c3ccccc3)cs2)cc1 |
| 96.5 | 619 | 13.3 | 35.9 | 230 | 17.3 | COc1cc(Cl)cc(NC(=O)c2nc(-c3ccccc3)cs2)c1 |
| 82.2 | 465 | 9 | 19.4 | 215 | 23.9 | O=C(Nc1cccc(F)c1)c1nc(-c2ccccc2)cs1 |
| 8.7 | – | – | – | – | – | O=C(Nc1ccc(N2CCNCC2)cc1)c1nc(-c2ccccc2)cs1 |
| 100 | 151 | 410 | 377 | 164 | 0.4 | O=C(Nc1ccc(I)cc1)c1nc(-c2ccccc2)cs1 |
| 92.2 | 472 | 28.6 | 63.4 | 213 | 7.45 | O=C(Nc1ccc(OC(F)(F)F)cc1)c1nc(-c2ccccc2)cs1 |
| 91.2 | 611 | 18.4 | 27.8 | 404 | 22 | COc1ccc(OC)c(NC(=O)c2nc(-c3ccccc3)cs2)c1 |
| 99.5 | 450 | 951 | 952 | 450 | 0.47 | O=C(Nc1ccc(C(F)(F)F)cc1)c1nc(-c2ccccc2)cs1 |
| 102 | 386 | 180 | 327 | 213 | 1.18 | O=C(Nc1ccc(Cl)cc1)c1nc(-c2ccccc2)cs1 |
| 102 | 2.4 | 7.2 | 1.6 | 10.8 | 1.49 | O=C(Nc1ccc(-n2ccnc2)cc1)c1nc(-c2ccccc2)cs1 |
| – | > 100000 | 116 | > 8640 | 1340 | 11.6 | NC(=O)c1cccc(-c2csc(C(=O)Nc3cc(Cl)cc(Cl)c3)n2)c1 |
| – | 688 | 7170 | 34400 | 143 | 0.02 | O=C(Nc1ccc(OC(F)F)cc1)c1nc(-c2cccc(F)c2)cs1 |
| – | 608 | 323 | 567 | 346 | 1.07 | O=C(Nc1ccc(C(F)(F)F)cc1)c1nc(-c2ccc(F)cc2)cs1 |

| inhibition at 0.5 h, 100 µM [1] [%] | IC50 [2] [nM] | Ratio IC50 [3] | Ratio IC50 [4] | IC50 [5] [nM] | IC50 [6] [nM] | SMILES |
| --- | --- | --- | --- | --- | --- | --- |
| – | 38400 | > 3650 | 1400 | > 100000 | 27.4 | O=C(Nc1cc(Cl)cc(Cl)c1)c1nc(-c2ccc([N+](=O)[O-])cc2)cs1 |
| – | 422 | 426 | 1470 | 123 | 0.29 | O=C(Nc1ccc(C(F)(F)F)cc1)c1nc(-c2cccc(F)c2)cs1 |
| – | > 100000 | 0.7 | > 413 | 167 | 242 | CC(=O)Nc1ccc(-c2csc(C(=O)Nc3cc(Cl)cc(Cl)c3)n2)cc1 |
| 62.8 | – | – | – | – | – | COc1cc(NC(=O)c2nc(-c3ccccc3)cs2)cc(OC)c1OC |
| – | 40300 | 18.2 | 967 | 758 | 41.6 | O=C(Nc1cc(Cl)cc(Cl)c1)c1nc(-c2ccc(O)cc2)cs1 |
| – | > 100000 | 0.1 | > 93.7 | 121 | 1070 | O=C(Nc1cc(Cl)cc(Cl)c1)c1nc(-c2ccc(F)cc2)c(-c2ccccc2)s1 |
| 77.4 | – | – | – | – | – | O=C(Nc1cccc(Cl)c1)c1nc(-c2ccccc2)cs1 |
| – | 537 | 25.6 | 67.6 | 203 | 7.95 | O=C(Nc1cc(Cl)cc(Cl)c1)c1nc(-c2ccccc2Cl)cs1 |
| – | > 10000 | 108 | > 2610 | 414 | 3.83 | COc1cc(NC(=O)c2nc(-c3ccc(F)cc3)cs2)cc(OC)c1 |
| – | 601 | 4.3 | 9.7 | 266 | 62 | Cc1ccccc1-c1csc(C(=O)Nc2cc(Cl)cc(Cl)c2)n1 |
| – | 641 | 31.9 | 162 | 127 | 3.97 | O=C(Nc1ccc(I)cc1)c1nc(-c2ccc(F)cc2)cs1 |
| 69.6 | – | – | – | – | – | O=C(Nc1ccccc1F)c1nc(-c2ccccc2)cs1 |
| – | 5730 | 104 | 5590 | 106 | 1.03 | NC(=O)c1ccc(-c2csc(C(=O)Nc3ccc(OC(F)F)cc3)n2)cc1 |
| – | 14700 | 55.1 | 1430 | 566 | 10.3 | Cc1ccc(-c2csc(C(=O)Nc3cc(Cl)cc(Cl)c3)n2)cc1 |
| – | > 10000 | 25.2 | > 5850 | 43.1 | 1.71 | Cc1sc(C(=O)Nc2cc(Cl)cc(Cl)c2)nc1-c1cccc(Cl)c1 |
| – | > 100000 | 114 | > 101000 | 113 | 0.99 | N#Cc1ccc(-c2csc(C(=O)Nc3ccc(OC(F)F)cc3)n2)cc1 |
| – | > 10000 | 53.4 | > 229 | 2330 | 43.7 | Cc1cccc(-c2csc(C(=O)Nc3cc(Cl)cc(Cl)c3)n2)c1 |
| 54.6 | – | – | – | – | – | NC(=O)c1ccc(NC(=O)c2nc(-c3ccccc3)cs2)cc1 |
| – | 4240 | 195 | 2990 | 277 | 1.42 | O=C(Nc1cc(Cl)cc(Cl)c1)c1nc(-c2ccc(F)cc2)cs1 |
